Assay results: the NIST ThermoML archive (doi:10.1021/je0301895)
± gives the expanded uncertainty stated by the source.

Tests used:
[1] = xn = mol fraction of the nth substance listed; settings: 298.15 K, 101 kPa, Liquid
[2] = 298.15 K; 101.33 kPa; Liquid
[3] = Solid-liquid equilibrium temperature; settings: 101.3 kPa; Crystal

CCCCCCCCN [1-octanamine] + CCCCCCCCCCO
[1]
Settings | excess molar volume [m3/mol]
x2 = 0.0791 | -2.401e-07 ± 2.1e-08
x2 = 0.1302 | -3.963e-07 ± 2.2e-08
x2 = 0.2056 | -6.005e-07 ± 2.4e-08
x2 = 0.2788 | -7.66e-07 ± 2.5e-08
x2 = 0.3263 | -8.612e-07 ± 2.5e-08
x2 = 0.3863 | -9.584e-07 ± 2.6e-08
x2 = 0.422 | -1.002e-06 ± 2.6e-08
x2 = 0.4623 | -1.03e-06 ± 2.6e-08
x2 = 0.5138 | -1.042e-06 ± 2.6e-08
x2 = 0.5525 | -1.039e-06 ± 2.6e-08
x2 = 0.5811 | -1.023e-06 ± 2.6e-08
x2 = 0.6153 | -9.952e-07 ± 2.6e-08
x2 = 0.6452 | -9.534e-07 ± 2.6e-08
x2 = 0.6956 | -8.646e-07 ± 2.5e-08
x2 = 0.7565 | -7.349e-07 ± 2.4e-08
x2 = 0.8463 | -4.965e-07 ± 2.3e-08
x2 = 0.9025 | -3.208e-07 ± 2.2e-08
x2 = 0.97 | -1.278e-07 ± 2.1e-08

CCCCCCCCO [octan-1-ol]
Settings | Solid-liquid equilibrium temperature [K] | mass density [kg/m3]
[2] | – | 822.21 ± 0.28
[3] | 258.03 ± 0.4 | –

CCCCCCCCN [1-octanamine] + CCCCCCCCCO
[1]
Settings | excess molar volume [m3/mol]
x2 = 0.0489 | -1.701e-07 ± 2.1e-08
x2 = 0.1572 | -4.742e-07 ± 2.3e-08
x2 = 0.2155 | -6.354e-07 ± 2.4e-08
x2 = 0.2763 | -7.661e-07 ± 2.5e-08
x2 = 0.3283 | -8.704e-07 ± 2.5e-08
x2 = 0.356 | -9.277e-07 ± 2.6e-08
x2 = 0.4125 | -1.005e-06 ± 2.6e-08
x2 = 0.4566 | -1.043e-06 ± 2.6e-08
x2 = 0.4998 | -1.055e-06 ± 2.6e-08
x2 = 0.5326 | -1.057e-06 ± 2.6e-08
x2 = 0.5732 | -1.049e-06 ± 2.6e-08
x2 = 0.6064 | -1.016e-06 ± 2.6e-08
x2 = 0.637 | -9.761e-07 ± 2.6e-08
x2 = 0.6602 | -9.511e-07 ± 2.6e-08
x2 = 0.7321 | -8.074e-07 ± 2.5e-08
x2 = 0.7905 | -6.629e-07 ± 2.4e-08
x2 = 0.8753 | -4.313e-07 ± 2.3e-08
x2 = 0.961 | -1.661e-07 ± 2.1e-08

CCCCCCCCCCO [decan-1-ol]
Settings | Solid-liquid equilibrium temperature [K] | mass density [kg/m3]
[2] | – | 826.64 ± 0.28
[3] | 278.67 ± 0.4 | –

CCCCCCCCCO [nonan-1-ol]
Settings | Solid-liquid equilibrium temperature [K] | mass density [kg/m3]
[2] | – | 824.6 ± 0.28
[3] | 268.1 ± 0.4 | –

CCCCCCCCCCCO [1-undecanol]
Settings | Solid-liquid equilibrium temperature [K] | mass density [kg/m3]
[2] | – | 829.34 ± 0.28
[3] | 289.63 ± 0.8 | –

CCCCCCCCN [1-octanamine] + CCCCCCCCO
[1]
Settings | excess molar volume [m3/mol]
x2 = 0.043 | -1.921e-07 ± 2.1e-08
x2 = 0.13 | -4.625e-07 ± 2.3e-08
x2 = 0.2358 | -7.264e-07 ± 2.4e-08
x2 = 0.3041 | -8.581e-07 ± 2.5e-08
x2 = 0.347 | -9.393e-07 ± 2.6e-08
x2 = 0.4158 | -1.024e-06 ± 2.6e-08
x2 = 0.4571 | -1.062e-06 ± 2.6e-08
x2 = 0.5174 | -1.071e-06 ± 2.6e-08
x2 = 0.554 | -1.068e-06 ± 2.6e-08
x2 = 0.5877 | -1.052e-06 ± 2.6e-08
x2 = 0.6385 | -1.012e-06 ± 2.6e-08
x2 = 0.709 | -9.034e-07 ± 2.5e-08
x2 = 0.7589 | -8.079e-07 ± 2.5e-08
x2 = 0.875 | -5.102e-07 ± 2.3e-08
x2 = 0.929 | -3.207e-07 ± 2.2e-08
x2 = 0.992 | -7.24e-08 ± 2e-08

CCCCCCCCN [1-octanamine] + CCCCCCCCCCCO
[1]
Settings | excess molar volume [m3/mol]
x2 = 0.0752 | -2.147e-07 ± 2.1e-08
x2 = 0.1043 | -2.984e-07 ± 2.2e-08
x2 = 0.1334 | -3.833e-07 ± 2.2e-08
x2 = 0.2069 | -5.724e-07 ± 2.3e-08
x2 = 0.3217 | -8.29e-07 ± 2.5e-08
x2 = 0.4007 | -9.437e-07 ± 2.6e-08
x2 = 0.4491 | -9.846e-07 ± 2.6e-08
x2 = 0.4941 | -1.008e-06 ± 2.6e-08
x2 = 0.5463 | -1.008e-06 ± 2.6e-08
x2 = 0.5958 | -9.803e-07 ± 2.6e-08
x2 = 0.639 | -9.391e-07 ± 2.6e-08
x2 = 0.6894 | -8.58e-07 ± 2.5e-08
x2 = 0.7458 | -7.411e-07 ± 2.4e-08
x2 = 0.7961 | -6.06e-07 ± 2.4e-08
x2 = 0.873 | -4.122e-07 ± 2.2e-08
x2 = 0.9158 | -2.804e-07 ± 2.2e-08

CCCCCCCCN [1-octanamine]
Settings | Solid-liquid equilibrium temperature [K] | mass density [kg/m3]
[2] | – | 779.95 ± 0.84
[3] | 273.37 ± 0.4 | –
